Source: patent US20220378721A1, “PROTEIN KINASE INHIBITORS AND USE THEREOF FOR TREATMENT OF NEURODEGENERATIVE DISEASES” (Xavier University of Louisiana, priority 2019, published 2022)
pIC50: −log10 of the molar value. Like-named read-outs stand apart in the source and are kept apart here.

Key:
[1] = molecular target: CK1δ (Homo sapiens, UniProt P48730); assay: Casein kinase 1δ inhibition assay, Z'-LYTE FRET based (ThermoFisher SelectScreen); type: biochemical; conditions: for % Inhibition CK1δ: 10 μM concentration, high-throughput screening; for pIC50 / IC50 values of inhibition of CK1δ: 10-point titration, 3-fold dilution from 25 μM (Table 4); for pIC50: read-out: IC50 values of inhibition of CK1δ; for IC50: dose response, FRET based assay (Table 2), read-out: CK1δ (IC50 μM)
Protocol: Casein kinase 1δ Inhibition Assay: An initial high-throughput assay of the 28 commercially purchased compounds and 22 synthesized compounds were conducted at a 10 μM concentration at the ThermoFisher Select Screen facility. […] FIG. 1 sets forth their chemical structures.
These compounds were then subjected to dose response curve determination studies with the same FRET based assays at ThermoFisher Scientific. The IC50 values, defined as the concentration of the compound required to […] by 50%, of the some of the compounds from the screening were measured (Table 2).
(§1) The synthesized molecules from FIG. 5 were then analyzed for the inhibition of CK1δ and CK1ε, using in-vitro kinase inhibition assay. The in-vitro kinase inhibition assays were conducted at the ThermoPisher Select Screen Biochemical Kinase Profiling Service. It is a Z′-LYTE biochemical FRET based fluorescence assay with a coupled enzyme format that has differential sensitivity to phosphorylated and non-phosphorylated peptides upon proteolytic cleavage. An initial high-throughput in-vitro screening assay at a concentration of 10 μM for all of the compounds in FIG. 5.
(§2) Table 4 sets forth the IC50 values of inhibition of CK1δ and CK1ε by some of the compounds from FIG. 5.

[2] = molecular target: CK1ε (Homo sapiens, UniProt P49674); assay: In-vitro kinase inhibition assay, Z'-LYTE FRET based (ThermoFisher SelectScreen); type: biochemical; conditions: for % Inhibition CK1ε: 10 μM concentration, high-throughput screening; for pIC50: 10-point titration, 3-fold dilution from 25 μM (Table 4)
Protocol: as §1, §2

[3] = test system: tau phosphorylation at Ser202 in HeLa cells; assay: Inhibition of tau phosphorylation at serine 202 in HeLa cells expressing full-length Tau; type: cell-based; conditions: HeLa cells transfected with full length tau, 10 μM compound; for inhibition of tau phosphorylation of Ser202: pTau/total Tau
Protocol: FIG. 3A and FIG. 3B show inhibition of Tau phosphorylation by CK1δ inhibitors in HeLa cells. HeLa cervical cancer cells ectopically expressing full-length Tau protein were treated with 10 μM of the indicated compounds. Samples were prepared in triplicate. […] Actin was used as a loading control only and was not used in any later calculations. […] The Y axis reflects the average change in pTau levels divided by total Tau levels for the triplicate experiments for each compound. For normalization purposes, the vehicle control was set to 1.0 and all other values were adjusted accordingly.
For a CK1δ inhibitor to be considered a potential therapeutic for AD, the compound should be able to inhibit the phosphorylation of tau at the specific residues that are known to be phosphorylated by CK1δ. It has been shown that tau phosphorylation at Ser202/Ser205 and Ser396/Ser404 by CK1δ is not dependent on the priming by other protein kinases. Additionally, these phosphorylation sites are among those sites (Ser199, Ser 202, Ser231, Thr205, Ser396 and Ser404) that regulate the microtubule stabilizing function. Based on these evidences, Ser202 was chosen as the representative tan phosphorylation site of this study to understand the efficacy of our CK1δ inhibitors in inhibiting tau phosphorylation.
Inhibition of Tau Phosphorylation. To confirm biological relevance, the compounds identified by the FRET screens as potential CK1δ inhibitors were tested in an in vitro assay for their ability to inhibit the phosphorylation of tau at serine 202, a known target of CK1δ. LH 846, a known inhibitor of CK1δ was used as the positive control. […] In in-vitro tau phosphorylation assay in HeLa cells that were transfected with full length tau, the CK1δ inhibitors indeed lowered the tau phosphorylation levels at Ser202 by 20%-56%. Compounds 8 and 9 inhibited tau phosphorylation of Ser202 by 56% and 55%, respectively when added to HeLa cells that were transfected with and therefore overexpressed tan protein (FIG. 3).

[4] = molecular target: CSNK1D (CK1δ) (Homo sapiens, UniProt P48730); assay: 100 kinase panel assay; type: biochemical
Description: (§3) Compound 2 (from FIG. 1) was screened against a panel of 100 kinases to understand the specificity.

[5] = molecular target: PIM1 (Homo sapiens, UniProt P11309); assay: 100 kinase panel assay; type: biochemical
Description: as §3

[6] = molecular target: PIM3 (Homo sapiens, UniProt Q86V86); assay: 100 kinase panel assay; type: biochemical
Description: as §3

CK1ε, sequence (P49674 whole entry): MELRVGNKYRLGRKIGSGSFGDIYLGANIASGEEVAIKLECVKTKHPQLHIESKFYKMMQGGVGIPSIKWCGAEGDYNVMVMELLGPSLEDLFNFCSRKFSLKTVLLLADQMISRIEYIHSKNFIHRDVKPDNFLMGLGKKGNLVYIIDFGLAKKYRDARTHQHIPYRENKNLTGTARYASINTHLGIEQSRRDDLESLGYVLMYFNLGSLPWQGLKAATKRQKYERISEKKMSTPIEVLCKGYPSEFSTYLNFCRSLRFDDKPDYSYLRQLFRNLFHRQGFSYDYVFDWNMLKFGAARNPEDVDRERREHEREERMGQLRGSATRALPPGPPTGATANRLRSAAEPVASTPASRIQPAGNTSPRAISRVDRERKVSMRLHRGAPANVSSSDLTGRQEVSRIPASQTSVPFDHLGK
CK1δ, sequence (P48730 whole entry): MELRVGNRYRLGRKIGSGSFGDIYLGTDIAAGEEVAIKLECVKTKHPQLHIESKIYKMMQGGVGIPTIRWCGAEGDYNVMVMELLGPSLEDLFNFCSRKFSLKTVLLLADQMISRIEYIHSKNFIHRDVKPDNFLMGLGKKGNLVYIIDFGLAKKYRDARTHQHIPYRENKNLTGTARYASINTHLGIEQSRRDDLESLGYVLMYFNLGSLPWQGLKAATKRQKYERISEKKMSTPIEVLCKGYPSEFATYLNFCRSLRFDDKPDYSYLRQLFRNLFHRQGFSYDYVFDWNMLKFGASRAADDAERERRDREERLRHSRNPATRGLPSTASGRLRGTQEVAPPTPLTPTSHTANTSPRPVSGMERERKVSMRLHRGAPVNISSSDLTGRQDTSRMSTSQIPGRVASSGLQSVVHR
PIM1, sequence (P11309 whole entry): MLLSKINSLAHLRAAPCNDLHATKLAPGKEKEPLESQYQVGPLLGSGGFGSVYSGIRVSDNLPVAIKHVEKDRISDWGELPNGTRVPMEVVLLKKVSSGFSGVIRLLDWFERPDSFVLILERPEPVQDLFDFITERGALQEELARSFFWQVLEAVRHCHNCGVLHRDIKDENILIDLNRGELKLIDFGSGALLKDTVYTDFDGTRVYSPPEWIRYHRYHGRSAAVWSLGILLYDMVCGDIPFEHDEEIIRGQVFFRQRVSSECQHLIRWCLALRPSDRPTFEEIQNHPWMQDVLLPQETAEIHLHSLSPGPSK
CSNK1D (CK1δ), sequence (P48730 whole entry): as the sequence (P48730 whole entry) above

| % Inhibition CK1δ [1] | % Inhibition CK1ε [2] | IC50 [1] | SMILES | further results |
| --- | --- | --- | --- | --- |
| 42% | – | – | O=C1C(Cl)=C(Cl)C(=O)c2c(O)c(Cl)cc(O)c21 [Compound 19] | pIC50 [1]: 5.02; % Inhibition CK1ε ([2]; 10 µM): 88%; selectivity for CK1ε over CK1δ ([2]; from % inhibition at 10 μM): 2 fold |
| 2% | 39% | – | CC1=C(C)C(=O)c2c(O)c(Cl)cc(O)c2C1=O [Compound 22] | – |
| 8% | 15% | – | CC(C)Cc1cc(O)c2c(c1)C(=O)C=C(C1=CC(=O)c3cc(CC(C)C)cc(O)c3C1=O)C2=O [Compound 29] | – |
| 21% | – | – | O=C1C(Cl)=C(Cl)C(=O)c2c(O)ccc(O)c21 [Compound 20] | IC50 values of inhibition of CK1δ [1]: could not be determined; pIC50 [1]: < 4.60; % Inhibition CK1ε ([2]; 10 µM): 84%; pIC50 [2]: 5.12 |
| 6% | 12% | – | CCCCCCc1cc(O)c2c(c1)C(=O)C=C(C1=CC(=O)c3cc(CCCCCC)cc(O)c3C1=O)C2=O [Compound 30] | – |
| – | – | 2.4 µM | CC(O)C1=CC(=O)c2c(O)ccc(O)c2C1=O (stereo not drawn) [Compound 16] | inhibition of tau phosphorylation at Ser202 (in words) [3]: comparable inhibition potency |
| 9% | 13% | – | CCCCCc1cc(O)c2c(c1)C(=O)C=C(C1=CC(=O)c3cc(CCCCC)cc(O)c3C1=O)C2=O [Compound 27] | – |
| 9% | 13% | – | CC(C)CCc1cc(O)c2c(c1)C(=O)C=C(C1=CC(=O)c3cc(CCC(C)C)cc(O)c3C1=O)C2=O [Compound 28] | – |
| 11% | 48% | – | CC(C)Cc1cc(O)c2c(c1)C(=O)C=CC2=O [Compound 25] | – |
| 1% | – | – | O=C1C=C(Br)C(=O)c2c(O)ccc(O)c21 [Compound 24] | IC50 values of inhibition of CK1δ [1]: could not be determined; pIC50 [1]: < 4.60; % Inhibition CK1ε ([2]; 10 µM): 96%; pIC50 [2]: 5.68 |
| 13% | – | – | O=C1C=CC(=O)c2c(O)c(Cl)cc(O)c21 [Compound 18] | IC50 values of inhibition of CK1δ [1]: could not be determined; pIC50 [1]: < 4.60; % Inhibition CK1ε ([2]; 10 µM): 90%; pIC50 [2]: 5.87 |
| 43% | 64% | – | CCc1cc(O)c2c(c1)C(=O)C=C(C1=CC(=O)c3cc(CC)cc(O)c3C1=O)C2=O [Compound 26] | – |
| 8% | 14% | – | O=C1C(c2ccccc2)=C(c2ccccc2)C(=O)c2c(O)ccc(O)c21 [Compound 21] | – |
| 31% | 58% | 6.3 µM | Cc1cc(O)c2c(c1O)C(=O)C=CC2=O [Compound 15] | – |
| 17% | 60% | – | O=C1C=C(c2ccccc2)C(=O)c2c(O)ccc(O)c21 [Compound 23] | – |

Further lines, the molecule ahead of its results:

| SMILES | % Inhibition CK1δ [1] | % Inhibition CK1ε [2] | IC50 [1] | further results |
| --- | --- | --- | --- | --- |
| CC(C)C(C)OC1CC(=O)CC2C(=O)c3c(O)ccc(O)c3C(=O)C12 (stereo not drawn) [Compound 9] | – | – | 5.8 µM | inhibition of tau phosphorylation at Ser202 (in words) [3]: comparable inhibition potency; inhibition of tau phosphorylation of Ser202 [3]: 55% |
| O=C1C(CO)=C(CO)C(=O)c2c(O)ccc(O)c21 [Compound 11] | – | – | 27.2 µM | – |
| O=C1c2ccccc2C(=O)c2c(NCCO)cccc21 [Compound 6] | – | – | 21.2 µM | – |
| O=Cc1cc(O)c2c(c1O)C(=O)C=CC2=O [Compound 14] | – | – | 3.1 µM | – |
| COc1cccc2c1C(=O)c1c(O)ccc(O)c1C2=O [Compound 5] | – | – | 0.2 µM | inhibition of tau phosphorylation at Ser202 (in words) [3]: comparable inhibition potency; inhibition of tau phosphorylation of Ser202 [3]: approximately 43% |
| COc1cc2cc3c(c(O)c2c(O)c1C=CC(C)C)C(=O)CC(C)(OC(C)=O)C3 (stereo not drawn) [Compound 4] | – | – | 16.1 µM | – |
| CNC(=O)c1ccc2c(c1N)C(=O)c1ccccc1C2=O [Compound 7] | – | – | 19.4 µM | – |
| O=C1C2=C(C(=O)c3c(O)ccc(O)c31)C(O)C(O)C(O)C2 (stereo not drawn) [Compound 2] | – | – | – | % Inhibition at 10 μM, CSNK1D [4]: 70%; % Inhibition at 10 μM, PIM1 [5]: 66%; % Inhibition at 10 μM, PIM3 [6]: 64%; inhibition of tau phosphorylation at Ser202 (in words) [3]: did not measure up to them |
| CC(C)(C)OC1CC(=O)CC2C(=O)c3cccc(O)c3C(=O)C12 (stereo not drawn) [Compound 8] | – | – | 18.9 µM | inhibition of tau phosphorylation at Ser202 (in words) [3]: comparable inhibition potency; inhibition of tau phosphorylation of Ser202 [3]: 56% |
| CC(C)(C)OC1CC(O)CC2C(=O)c3c(O)ccc(O)c3C(=O)C12 (stereo not drawn) [Compound 10] | – | – | 10.1 µM | – |
| Cc1ccc(O)c2c1C(=O)C=CC2=O [Compound 13] | – | – | 31.2 µM | % Inhibition CK1δ ([1]; 10 µM): 85%; pIC50 [1]: 5.62; % Inhibition CK1ε ([2]; 10 µM): 98%; pIC50 [2]: 5.92 |
| O=C1C=C(CBr)C(=O)c2c(O)ccc(O)c21 [Compound 12] | – | – | 0.7 µM | % Inhibition CK1δ ([1]; 10 µM): 94%; pIC50 [1]: 6.14; % Inhibition CK1ε ([2]; 10 µM): 101%; inhibition of tau phosphorylation at Ser202 (in words) [3]: comparable inhibition potency |
| CC(=O)Oc1ccc(O)c2c1C(=O)C=CC2=O [Compound 3] | – | – | 0.2 µM | – |
